Measured values: patent US20110318375A1, “Immunomodulatory Therapeutic Agents” (priority 2009, published 2011)

Key:
[1] = tested on: Cytokine 12 Panel; test: Cytokine 12 panels following oral administration of FPA (Table 6); format: in vivo, human; parameters: IL-12 / IL-10 / TNF-α / IL-2: unit not given here; details: for IFN-γ / IL-4 / IL-5 / IL-6 / IL-8 / IL-13: nl: 0-5; for IL-12: nl: 0-6; for IL-2: nl: 0-12; for IL-10: nl: 0-18; for TNF-α: nl: 0-22; for IL-1β: nl: 0-36; for IL-2R: nl: 0-1033
Source text: One of these patients was the same patient previously utilized, while the other was relatively neve to any previous Fibrinopeptide A treatment. The patient had taken two doses orally approximately seven weeks prior to this treatment, no lab work had been obtained with this prior dosing. […] This again elucidates the lack of effect of Fibrinopeptide A when given IV and the importance of utilizing a lymphatic route when treating with Fibrinopeptide A, and probably the others as well. [table] The data in table 6 further illustrates the up regulation of all aspects of the immune system in response to this persistent exposure to synthetic activated fibrinopeptide A through a lymphatic administration.

[2] = tested on: Cytokine 12 Panel; test: Cytokine 12 panels after IV dose of 50 mg synthetic Fibrinopeptide A; format: in vivo, human; parameters: IL-10 / TNF-α / IL-2 / IL-12: unit not given here; details: for IFN-γ / IL-4 / IL-5 / IL-6 / IL-8 / IL-13: nl: 0-5; for IL-12: nl: 0-6; for IL-2: nl: 0-12; for IL-10: nl: 0-18; for TNF-α: nl: 0-22; for IL-1β: nl: 0-36; for IL-2R: nl: 0-1033
Source text: Peptide was suspended in an appropriate medium and a healthy volunteer took the preparation daily for two weeks, drawing blood for a cytokine 12 panel every five days. Due to the size of the molecules absorption from the mucosal route seemed unlikely, and the rapid digestion of peptides in the stomach would eliminate their efficacy in a true oral route. This same healthy volunteer had lab work drawn right before receiving an IV dose of synthetic Fibrinopeptide A. The IV dose was expected to have a more profound therapeutic effect, since treatment was simulating a normal intravascular biologic process. […] (Table 3). [table] In addition to these elevations, a mild elevation of Interleukin-6 was also observed. Interleukin-6 is a pro-inflammatory cytokine and is a very strong stimulator of the innate immune system. […] The most significant of these tests is the blood drawn one month after the IV dose was given. In this test the marked elevation of at least IL-10 and IL-1β, which had been present in each of the other dosages given by any route, was observed. […] This location for primary activity also explains the stimulation of the adaptive immune system over the innate immune response, as the lymphatic system is more involved in the adaptive response, while the vascular system is more involved in the innate response. The response to orally administered Fibrinopeptide A also solidifies this location of activity as transmucosal absorption occurs almost exclusively through the lymphatic route, occurs rapidly for those molecules which are absorbed, and the oral submucosal region (especially the sublingual region) has an extensive lymphatic drainage with rapid access to the cells which would produce this type of response while at least partially being shielded from the enzymes that inactivate the peptides of this invention. Since chronic fibrin deposition in the extravascular space is always pathologic and pro-inflammatory, it is not surprising that patients have a mechanism triggered by this deposition to aid in the removal of these substances. […] By signaling the need for removal from the extravascular space, the same process should occur for similar chronic deposits in the subintimal space.

[3] = 2 weeks back on FPA (different carrier)

## ADSGEGDFLAEGGGV (listed as Homo sapiens) [Fibrinopeptide A]
[1]; 2 Weeks off FPA
  IFN-γ: <5
  IL-4: <5
  IL-5: 6
  IL-6: 66
  IL-8: 8
  IL-13: 8
  IL-12: 6
  IL-2: 7
  IL-10: 230
  TNF-α: <5
  IL-1β: 37
  IL-2R: 255
[1]; [3]
  IFN-γ: 5
  IL-4: <5
  IL-5: 6
  IL-6: 63
  IL-8: 8
  IL-13: 9
  IL-12: 6
  IL-2: 7
  IL-10: 204
  TNF-α: <5
  IL-1β: 48
  IL-2R: 268
[1]; oral, 1 Week
  IFN-γ: <5
  IL-4: <5
  IL-5: <5
  IL-6: <5
  IL-8: <5
  IL-13: <5
  IL-12: <5
  IL-2: <5
  IL-10: 141
  TNF-α: <5
  IL-1β: 30
  IL-2R: 504
[1]; oral, 2 weeks
  IFN-γ: 5
  IL-4: <5
  IL-5: 5
  IL-6: 77
  IL-8: 8
  IL-13: 6
  IL-12: 6
  IL-2: 7
  IL-10: 183
  TNF-α: <5
  IL-1β: 83
  IL-2R: 254
[2]; 10 Hours after IV 50 mg
  IFN-γ: <5
  IL-4: <5
  IL-5: <5
  IL-6: 11
  IL-8: <5
  IL-12: <5
  IL-2: <5
  IL-10: 87
  TNF-α: <5
  IL-1β: 52
  IL-2R: 475
[2]; 14 hours after IV 50 mg
  IFN-γ: <5
  IL-4: <5
  IL-5: <5
  IL-6: 10
  IL-8: <5
  IL-12: <5
  IL-2: <5
  IL-10: 87
  TNF-α: <5
  IL-1β: 54
  IL-2R: 492
[2]; 60 hours after IV 50 mg
  IFN-γ: <5
  IL-4: <5
  IL-5: <5
  IL-6: 7
  IL-8: <5
  IL-12: <5
  IL-2: <5
  IL-10: 74
  TNF-α: <5
  IL-1β: 54
  IL-2R: 425
[2]; 30 days after IV 50 mg
  IFN-γ: <5
  IL-4: <5
  IL-5: <5
  IL-6: <5
  IL-8: <5
  IL-13: <5
  IL-12: <5
  IL-2: <5
  IL-10: 22
  TNF-α: <5
  IL-1β: <5
  IL-2R: 546
[2]; IV dose 10 times stronger than the subcutaneous dosage given previously
  response of the cytokine panel to IV administration: no appreciable response
[2]; Pre and 1 month after IV Use
  IFN-γ: <5
  IL-4: <5
  IL-5: <5
  IL-6: <5
  IL-8: <5
  IL-13: <5
  IL-12: <5
  IL-2: <5
  IL-10: 22
  TNF-α: <5
  IL-1β: <5
  IL-2R: 546
